Where two headings read alike, the source gives them in different places.
Tests used:
[1] = Pharmacokinetics in plasma and lung in mouse; type: in vivo; conditions: single oral aspiration 0.2 mg/mL 50 μL
Description: Assay 5: Pharmacokinetics in Plasma and Lung in Mouse
Plasma and lung concentrations of test compounds and ratios thereof were determined in the following manner. BALB/c mice from Charles River Laboratories were used in the assay. Test compounds were individually formulated in 20% propylene glycol in pH 4 citrate buffer at a concentration of 0.2 mg/mL and 50 μL of the dosing solution was introduced into the trachea of a mouse by oral aspiration. At various time points (typically 0.167, 2, 6, 24 hr) post dosing, blood samples were removed via cardiac puncture and intact lungs were excised from the mice. Blood samples were centrifuged (Eppendorf centrifuge, 5804R) for 4 minutes at approximately 12,000 rpm at 4° C. to collect plasma. […] Plasma and lung concentrations of test compound were determined by LC-MS analysis against analytical standards constructed into a standard curve in the test matrix. A lung-to-plasma ratio was determined as the ratio of the lung AUC in μg hr/g to the plasma AUC in μg hr/mL, where AUC is conventionally defined as the area under the curve of test compound concentration vs. time.

[2] = Phase 1 SAD/MAD study of inhaled compound 1 in healthy subjects; type: in vivo, human; conditions: for AUC(0-t): read-out: AUC0-24
Description: This is a phase 1, 2-part, double-blind, randomized, placebo controlled, sponsor-open, SAD (Part A) and MAD (Part B). Subjects will participate in only 1 cohort in only 1 study part.
Part A (SAD): three (3) cohorts of 8 healthy subjects (6 active and 2 placebo). In each cohort, subjects received a single inhaled dose of compound 1 or placebo. […] Cardiodynamic monitoring via Holter monitors was conducted pre-dose and for at least 24 hours following dosing on Day 1 in each cohort, with rest periods for cardiodynamic electrocardiogram (ECG) extractions time matched to the PK sampling time points.
Part B (MAD): three (3) cohorts of 10 healthy subjects (8 active and 2 placebo). In each cohort, subjects received inhaled doses once daily (QD) for 7 days. […] Blood samples for PK assessment were also collected pre-dose on the morning of Days 3 through 6. Cardiodynamic monitoring via Holter monitors may be conducted pre-dose on Day 1 and pre-dose and for at least 24 hours following dosing on the morning of Day 7 in each cohort with rest periods for cardiodynamic ECG extractions time matched to the PK sampling time points.
Parts A and B: safety (i.e., physical examinations, vital signs, 12-lead safety ECGs, spirometry, clinical laboratory tests, and adverse events [AEs]) were assessed throughout the study; blood and urine samples were collected for safety assessments. All subjects who received at least one dose of study drug (including subjects who terminated the study early) returned to the CRU 7 (±2) days after the last study drug administration for follow-up procedures, and to determine if any AEs have occurred since the last study visit.
Part B: subjects received inhaled doses QD for 7 days using a nebulizer device.
Morning doses on Days 1 and 7 were administered under fasting conditions due to cardiodynamic monitoring. On all other times, doses were administered at least 30 minutes after completion of a meal or snack. Hour 0 was defined as the beginning of inhalation in each morning dose administration.
AUC0-24, AUC0-∞, Cmax and t1/2 are presented as arithmetic mean (standard deviation). Tmax is presented as median (minimum, maximum).

[3] = healthy subjects, 1 mg to 10 mg
[4] = human, plasma, inhaled or intranasal, 1 mg, healthy subjects, inhaled 1 mg QD, Day 1, mean
[5] = human, plasma, inhaled or intranasal, 1 mg, healthy subjects, inhaled 1 mg QD, Day 7, mean
[6] = human, plasma, inhaled or intranasal, 1 mg, healthy subjects, single inhaled dose 1 mg, mean
[7] = human, plasma, inhaled or intranasal, 3 mg, healthy subjects, inhaled 3 mg QD, Day 1, mean
[8] = human, plasma, inhaled or intranasal, 3 mg, healthy subjects, inhaled 3 mg QD, Day 7, mean
[9] = human, plasma, inhaled or intranasal, 3 mg, healthy subjects, single inhaled dose 3 mg, mean
[10] = human, plasma, inhaled or intranasal, 10 mg, healthy subjects, inhaled 10 mg QD, Day 1, mean
[11] = human, plasma, inhaled or intranasal, 10 mg, healthy subjects, inhaled 10 mg QD, Day 7, mean
[12] = human, plasma, inhaled or intranasal, 10 mg, healthy subjects, single inhaled dose 10 mg, mean

CCc1cc(O)ccc1-c1ccc2c(-c3nc4c([nH]3)CN(C(C)C)[C@H](C(=O)N3CC(N(C)C)C3)C4)n[nH]c2c1 [Compound 1, (S)-(3-(dimethylamino)azetidin-1-yl)(2-(6-(2-ethyl-4-hydroxyphenyl)-1H-indazol-3-yl)-5-isopropyl-4,5,6,7-tetrahydro-3H-imidazo[4,5-c]pyridin-6-yl)methanone]
Lung Tissue AUC(0-24) [1]: 54.5 µg·h/g | Plasma AUC(0-24) [1]: 943 ng·h/mL | changes in laboratory parameters, vital signs, or ECGs [2, 3]: no clinically relevant changes | severity of adverse events [2, 3]: mild or moderate | Tmax ([2]; healthy subjects, inhaled 1 mg QD, Day 1, median): 1.0 h | Tmax ([2]; healthy subjects, inhaled 1 mg QD, Day 7, median): 1.0 h | Tmax ([2]; healthy subjects, inhaled 3 mg QD, Day 1, median): 1.0 h | Tmax ([2]; healthy subjects, inhaled 3 mg QD, Day 7, median): 1.0 h | Tmax ([2]; healthy subjects, inhaled 10 mg QD, Day 1, median): 1.0 h | Tmax ([2]; healthy subjects, inhaled 10 mg QD, Day 7, median): 1.0 h | tolerability ([2]; healthy subjects, single daily doses 1 mg to 10 mg for 7 days): well tolerated | t1/2 ([2]; healthy subjects, single inhaled dose 3 mg, mean): 24.73 h | Cmax [2, 4]: 5.33 ng/mL | AUC(0-t) [2, 4]: 18.4 ng·h/mL | Cmax [2, 5]: 5.7 ng/mL | AUC(0-t) [2, 5]: 21.6 ng·h/mL | Cmax [2, 6]: 5.72 ng/mL | AUC(0-t) [2, 6]: 18.5 ng·h/mL | half-life ([2]; human, plasma, inhaled or intranasal, 1 mg, healthy subjects, single inhaled dose 1 mg, mean, read-out: t1/2 (converted)): 19.3 h | Cmax [2, 7]: 17.8 ng/mL | AUC(0-t) [2, 7]: 48.1 ng·h/mL | Cmax [2, 8]: 18.2 ng/mL | AUC(0-t) [2, 8]: 52.3 ng·h/mL | Cmax [2, 9]: 14.1 ng/mL | AUC(0-t) [2, 9]: 43.3 ng·h/mL | half-life ([2]; human, plasma, inhaled or intranasal, 3 mg, healthy subjects, single inhaled dose 3 mg, mean, read-out: t1/2 (converted)): 24.7 h | Cmax [2, 10]: 54.6 ng/mL | AUC(0-t) [2, 10]: 191 ng·h/mL | Cmax [2, 11]: 53.6 ng/mL | AUC(0-t) [2, 11]: 204 ng·h/mL | Cmax [2, 12]: 50.9 ng/mL | AUC(0-t) [2, 12]: 153 ng·h/mL | half-life ([2]; human, plasma, inhaled or intranasal, 10 mg, healthy subjects, single inhaled dose 10 mg, mean, read-out: t1/2 (converted)): 23.1 h | Tmax ([2]; human, plasma, inhaled or intranasal, healthy subjects, following single and multiple inhaled doses, read-out: Tmax): ~1 h | half-life ([2]; human, plasma, inhaled or intranasal, healthy subjects, following single and multiple inhaled doses, read-out: terminal elimination half-life (converted)): ~24 h | AUC(0-inf) ([2]; human, plasma, inhaled or intranasal, healthy subjects, single inhaled dose 1 mg, mean): 20.7 ng·h/mL | Tmax ([2]; human, plasma, inhaled or intranasal, healthy subjects, single inhaled dose 1 mg, median, read-out: Tmax): 1 h | AUC(0-inf) ([2]; human, plasma, inhaled or intranasal, healthy subjects, single inhaled dose 3 mg, mean): 48.6 ng·h/mL | Tmax ([2]; human, plasma, inhaled or intranasal, healthy subjects, single inhaled dose 3 mg, median, read-out: Tmax): 1 h | AUC(0-inf) ([2]; human, plasma, inhaled or intranasal, healthy subjects, single inhaled dose 10 mg, mean): 169 ng·h/mL | Tmax ([2]; human, plasma, inhaled or intranasal, healthy subjects, single inhaled dose 10 mg, median, read-out: Tmax): 1 h | neutrophil and hemoglobin reductions, lipid changes ([2]; inhaled administration): not observed

From US20210346357A1 (priority 2020, published 2021)
